The numbers were not newly measured in patent publication US20250205255A1, “PHOSPHOLIPID COMPOSITIONS FOR TREATING INFECTIONS AND INFLAMMATION” (Celestial Therapeutics, Inc., priority 2022, published 2025), which cites them from elsewhere.

Data set [1] concerns Toll-like receptor 4 (TLR4) interacting proteins CD14 and MD-2. The conditions noted are these: through direct interactions with CD14 and MD-2.
In data set [2] the test system is Respiratory Syncytial Virus (RSV). The conditions noted are these: bronchial epithelial cells.

Take `CCCCCCCC/C=C\CCCCCCCC(=O)O[C@H](COC(=O)CCCCCCCCCCCCCCC)COP(=O)(O)OCC(O)CO` (mixture of isomers) [POPG, 1-Palmitoy-2-loleoyl-sn-glycerol-3-phospho-(1′-rac-glycerol)]: the “inflammatory responses induced by lipopolysaccharide” value in data set [1] is “markedly attenuate”. The “cytopathic effects induced by RSV” value in data set [2] is “significantly inhibited”. Also, in data set [2] (induced by RSV), the interleukin-6 production entry is on record as “significantly inhibited” and the interleukin-8 production result is recorded as “significantly inhibited”.
